Values of other authors in patent publication US20190328772A1, “OPHTHALMIC COMPOSITIONS COMPRISING A CYCLODEXTRIN AS SOLE ACTIVE AGENT” (priority 2016, published 2019).
Where two headings read alike, the source gives them in different places.

Assays:
[1] = system: corneal epithelium of rabbits
drusen = conditions: 37° C., 24 hours
mouse brown fat tissue = conditions: concentrations of 25-40%, 24 hours

## β-Cyclodextrin sulfobutyl ether [SBE-β-CD]
[1]; solution of 10%
  toxicity or irritation in rabbit eyes: not to be toxic or irritating

## randomly methylated β-CD [RM-β-CD]
[1]; concentration 5%
  toxicity to the corneal epithelium of rabbits: can be toxic

## CC(O)COC[C@H]1O[C@@H]2O[C@H]3[C@H](O)[C@@H](O)[C@@H](O[C@H]4[C@H](O)[C@@H](O)[C@@H](O[C@H]5[C@H](O)[C@@H](O)[C@@H](O[C@H]6[C@H](O)[C@@H](O)[C@@H](O[C@H]7[C@H](O)[C@@H](O)[C@@H](O[C@H]8[C@H](O)[C@@H](O)[C@@H](O[C@H]1[C@H](O)[C@H]2O)O[C@@H]8COCC(C)O)O[C@@H]7COCC(C)O)O[C@@H]6COCC(C)O)O[C@@H]5COCC(C)O)O[C@@H]4COCC(C)O)O[C@@H]3COCC(C)O (stereo partly drawn) [HP-β-CD, Hydroxypropyl-β-cyclodextrin]
drusen; 40 ml of 25%, sections of a cut up human eye
  dissolving the lipid component in drusen: efficacy in dissolving the lipid component in drusen
drusen; 40 ml of different concentrations, eye sections
  change of drusen by H&E staining: no change
Mouse brown fat tissue
  removal of mouse brown fat tissue: able to partially remove mouse brown fat tissue
[1]; rabbit, in vivo
  toxicity or irritation in rabbit eyes: not to be toxic or irritating
